Data reported in patent US20240336897A1, “COMPOSITIONS AND METHODS FOR CELL REPROGRAMMING” (CORNELL UNIVERSITY, priority 2021, published 2024).

Experiments:
[1] = test system: biPSCs; experiment: Base medium lacking individual inhibitors for GSK3β, MEK1/2 or TGFβ/activin/nodal; settings: GMTi base medium lacking this inhibitor
Procedure: (§1) The biPSC colonies emerging from reprogramming trials were manually picked, dissociated into single cells using TrypLE™ (ThermoFisher) and plated on iMEFs in GMTi medium. For passaging, confluent cultures of biPSCs were rinsed once with PBS and incubated with TrypLE for 5 minutes. Cells were then collected in fibroblast medium, and centrifuged at 200×rcf for 5 minutes. The pellet was then resuspended in GMTi medium for plating on iMEFs. Passaging of biPSCs was performed repeatedly (every 3-4 days), with concurrent examination and imaging of morphology, growth characteristics and expression of PSC markers. […] Base medium conditions lacking individual inhibitors for GSK3β, MEK1/2 or TGFβ/activin/nodal were also prepared and tested for their ability to sustain pluripotent cultures. All cultures were maintained in a humidified incubator at 37° C. under an atmosphere of 5% CO2.

[2] = test system: biPSCs; settings: MEK1/2 and GSK3B inhibitors used together; cited from earlier work
[3] = test system: biPSCs; experiment: Sustenance of biPSCs using specific pathway inhibition (GMTi medium): repeated passaging, morphology; settings: at least over a few passages, cell morphology
Procedure: as §1

Molecule | effect of removing the single inhibitor from biPSC cultures [1] | effect on biPSCs [2] | effect of excluding the factor from the GMTi medium on biPSCs [3]
Cc1cccc(-c2nn(C(=S)Nc3ccccc3)cc2-c2ccnc3ccccc23)n1 [A83-01] | resulted in differentiation | – | –
Cc1c[nH]c(-c2cnc(NCCNc3ccc(C#N)cn3)nc2-c2ccc(Cl)cc2Cl)n1 [CHIR99021] | resulted in differentiation | suspend biPSCs in a pluripotent state, but without the ability to proliferate | –
O=C(NOC[C@H](O)CO)c1ccc(F)c(F)c1Nc1ccc(I)cc1F [PD0325901] | – | suspend biPSCs in a pluripotent state, but without the ability to proliferate | –
IL6: interleukin 6, leukemia inhibitory factor family member | – | – | did not negatively affect biPSCs
LIF: human leukemia inhibitory factor | – | – | did not negatively affect biPSCs
